Results published in ChEMBL document CHEMBL1201862, “PubChem BioAssay data set” (2004).
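Briefly, cells in 96-well plates were exposed to five compound concentrations for 48 h, and endpoints were estimated by linear interpolation. Abbreviation: GI50, concentration required for 50% inhibition of growth.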 The source made the active and inactive calls. Cut-off read from the data, not from the text of the source: active = GI50 up to about 1.1 µM and inactive = higher.

Tests used:
Test in all cases: NCI-60 cell line screen, 48 h
[1] = system: UACC-257
[2] = system: OVCAR-4
[3] = system: M14
[4] = system: SK-MEL-5
[5] = system: NCI/ADR-RES
[6] = system: MDA-N
[7] = system: SN12C
[8] = system: A498
[9] = system: U-251
[10] = system: HOP-62
[11] = system: MCF7
[12] = system: SK-OV-3
[13] = system: SF-539
[14] = system: EKVX
[15] = system: UACC-62
[16] = system: UO-31
[17] = system: MOLT-4
[18] = system: A549
[19] = system: SNB-75
[20] = system: SK-MEL-2

Structure (SMILES) | GI50 [1] | GI50 [2] | GI50 [3] | GI50 [4] | GI50 [5] | GI50 [6] | GI50 [7] | GI50 [8] | GI50 [9] | GI50 [10] | GI50 [11] | GI50 [12] | GI50 [13] | GI50 [14] | GI50 [15] | GI50 [16] | GI50 [17] | GI50 [18] | GI50 [19] | GI50 [20]
COc1cccc(/C=N/NC(=O)CN(C)C)c1O | > 100 µM (inactive) | > 100 µM (inactive) | > 100 µM (inactive) | > 100 µM (inactive) | > 100 µM (inactive) | > 100 µM (inactive) | > 100 µM (inactive) | > 100 µM (inactive) | > 100 µM (inactive) | > 100 µM (inactive) | > 100 µM (inactive) | > 100 µM (inactive) | > 100 µM (inactive) | > 100 µM (inactive) | > 100 µM (inactive) | > 100 µM (inactive) | > 100 µM (inactive) | > 100 µM (inactive) | < 0.01 µM (active) | –
O=c1[nH]c2ccsc2c(=O)n1COCc1ccccc1 | > 100 µM (inactive) | > 100 µM (inactive) | > 100 µM (inactive) | > 100 µM (inactive) | > 100 µM (inactive) | > 100 µM (inactive) | > 100 µM (inactive) | > 100 µM (inactive) | > 100 µM (inactive) | > 100 µM (inactive) | > 100 µM (inactive) | – | > 100 µM (inactive) | > 100 µM (inactive) | – | > 100 µM (inactive) | > 100 µM (inactive) | > 100 µM (inactive) | > 100 µM (inactive) | > 100 µM (inactive)
CN(C)CCNC(=O)c1cccc2c(NCC(=O)O)c3ccccc3nc12 | – | 9.82 µM (inactive) | 17 µM (inactive) | 10.6 µM (inactive) | 11.9 µM (inactive) | 14 µM (inactive) | 9.98 µM (inactive) | 18.6 µM (inactive) | 24.5 µM (inactive) | 11.6 µM (inactive) | 3.79 µM (inactive) | 21.1 µM (inactive) | – | 10.6 µM (inactive) | 15.1 µM (inactive) | 7.4 µM (inactive) | 4.08 µM (inactive) | 7.85 µM (inactive) | 17.6 µM (inactive) | 16.7 µM (inactive)
CCOC(=O)c1nc2ccccc2nc1Oc1ccc(OC)cc1 | > 100 µM (inactive) | > 100 µM (inactive) | > 100 µM (inactive) | > 100 µM (inactive) | > 100 µM (inactive) | > 100 µM (inactive) | > 100 µM (inactive) | > 100 µM (inactive) | > 100 µM (inactive) | > 100 µM (inactive) | > 100 µM (inactive) | > 100 µM (inactive) | > 100 µM (inactive) | > 100 µM (inactive) | > 100 µM (inactive) | > 100 µM (inactive) | > 100 µM (inactive) | > 100 µM (inactive) | – | > 100 µM (inactive)
O=C(NCCCCCCNCc1cccc2ccccc12)Nc1cccc2ccccc12 | > 100 µM (inactive) | > 100 µM (inactive) | 34.3 µM (inactive) | > 100 µM (inactive) | > 100 µM (inactive) | > 100 µM (inactive) | > 100 µM (inactive) | > 100 µM (inactive) | > 100 µM (inactive) | > 100 µM (inactive) | > 100 µM (inactive) | – | > 100 µM (inactive) | > 100 µM (inactive) | > 100 µM (inactive) | 51.6 µM (inactive) | > 100 µM (inactive) | > 100 µM (inactive) | > 100 µM (inactive) | > 100 µM (inactive)
CCOC(=O)C1=CC(C)(C(=O)OCC)Nc2c(nc(OC)[nH]c2=O)N1 (centres undefined) | > 10 µM (inactive) | > 10 µM (inactive) | > 10 µM (inactive) | > 10 µM (inactive) | > 10 µM (inactive) | > 10 µM (inactive) | > 10 µM (inactive) | > 10 µM (inactive) | > 10 µM (inactive) | > 10 µM (inactive) | > 10 µM (inactive) | > 10 µM (inactive) | > 10 µM (inactive) | > 10 µM (inactive) | – | > 10 µM (inactive) | > 10 µM (inactive) | > 10 µM (inactive) | > 10 µM (inactive) | > 10 µM (inactive)
CN(/N=C/c1ccc(OCc2cccc(COc3ccc(C=O)cc3)n2)cc1)c1cnn(-c2ccc(Cl)cc2Cl)c(=O)c1Cl | > 100 µM (inactive) | 6.9 µM (inactive) | > 100 µM (inactive) | > 100 µM (inactive) | 21.2 µM (inactive) | > 100 µM (inactive) | > 100 µM (inactive) | 48.5 µM (inactive) | 26.9 µM (inactive) | 17.7 µM (inactive) | > 100 µM (inactive) | – | 12.5 µM (inactive) | 16 µM (inactive) | > 100 µM (inactive) | > 100 µM (inactive) | > 100 µM (inactive) | > 100 µM (inactive) | 11.4 µM (inactive) | 33 µM (inactive)
CS(=O)(=O)N1CC(CCl)c2ccc(O)cc21 (centres undefined) | 2.44 µM (inactive) | 2.86 µM (inactive) | – | 1.55 µM (inactive) | 2.56 µM (inactive) | 1.52 µM (inactive) | 2.91 µM (inactive) | 1.83 µM (inactive) | 2.74 µM (inactive) | 3.56 µM (inactive) | 1.98 µM (inactive) | – | 2.04 µM (inactive) | 5.31 µM (inactive) | 4.17 µM (inactive) | 2.32 µM (inactive) | 2.09 µM (inactive) | 3.19 µM (inactive) | 2.71 µM (inactive) | 2.94 µM (inactive)
